Data set [1] has as its system H/M cells. Briefly: treatment of mice transplanted with H/M cells. It is filed as in vivo. An excerpt:
(§1) FIG. 7. Meis1 sensitizes Hoxa9-driven leukemia to Syk inhibition. (A) SYK protein expression in H/M cells transfected with either a control shRNA (GL2) or two shRNAs targeting SYK. Actin was used as loading control for relative protein quantification. (B) Percentage of BFP-positive shRNA-expressing cells relative to BFP-negative shRNA-negative cells at the times indicated (mean±SD, normalized to day 0). (C) Same as (A), before and after five days of doxycycline (dox) treatment in vivo. (D) Kaplan-Meier survival curves of mice transplanted with H/M cells and treated with doxycycline for 43 days to express non-specific control and Syk-specific shRNA (n=8). p-value is from a Mantel-Cox test. (E) Percentage of YFP-positive cells from peripheral blood of mice transplanted with H (left) or H/M (right) cells after treating for 7 days with R788 or placebo. Measurements were taken at the indicated time points. The black line connects median values. (F) Kaplan-Meier survival curves of mice transplanted with either H or H/M cells and treated for 20 days with R788 or placebo (n=11). p-value is from a Mantel-Cox test. (G) Relative HOXA9 and MEIS1 mRNA expression in MV4-11 and KG1 cell lines, and in patient-derived AML cells as measured by qPCR, normalized to GAPDH expression (mean±SD, n=3). […] Actin was used as loading control for relative protein quantification. avg, average. […]

Data set [2] has as its system H cells. Nature of the data set: treatment of mice transplanted with H cells. It is filed as in vivo.
From the text: as §1

In the next data set the test system is H/S cells. Briefly: colony formation and replating assay. It is filed as cell-based, mouse. From the text: (§2) The inventors next sought to characterize the functional consequences of Syk overexpression in the context of Hoxa9-driven leukemias. For this purpose, the consequences of a lentiviral overexpression of human SYK (hSYK) in H cells in vitro and in vivo were examined. […] While Hoxa9 alone is sufficient to enable replating, both Meis1 and hSYK enhanced replating efficiency.

Data set [3] has as its system H/M cells. Nature of the data set: time-lapse microscopy and single-cell tracking. It is filed as cell-based, mouse. Conditions: compared with DMSO-treated cells, tracked over more than 50 hours. As for the experimental part: (§3) The effect of Syk inhibition in H and H/M cells was further examined by monitoring the fate of individual cells and their progeny by time-lapse microscopy and single-cell tracking (Rieger et al., 2009). This allowed to track hundreds of H and H/M cells over more than 50 hours in real time and to record their history across cell generations. […] In addition, the inventors knocked down Syk in vivo by transplanting mice with cells that were either transduced with the doxycycline-inducible lentiviral Syk shRNAs or with control shRNAs and treating them with doxycycline for 43 days. Knockdown of Syk prolonged the survival of mice transplanted with H/M cells from a median time of 40.5 days in controls to a median of 103 days (p<0.001) (FIGS. 7C and 7D). Furthermore, mice transplanted with H/M or H cells were treated with the oral Syk inhibitor R788, a prodrug of R406.

Data set [4] has as its system H cells. Nature of the data set: time-lapse microscopy and single-cell tracking. It is filed as cell-based, mouse. To be noted: compared with DMSO-treated cells, tracked over more than 50 hours. On the procedure: as §3
For data set [5], the system named is H/M cells. Briefly: colony formation and replating assay. It is filed as cell-based, mouse. From the text: (§4) To elucidate the molecular mechanisms underlying Meis1's contribution to leukemogenesis, a retroviral transplantation model was employed in which lineage-depleted mouse bone marrow cells were transduced with an MSCV-Hoxa9-PGK-neo construct, alone or in combination with an MSCV-Meis1-IRES-YFP construct that induced a 22-fold overexpression of Meis1. As reported by previously, the transformed cells could be cultured in vitro in the presence of IL3/IL6/SCF and expressed the expected immunophenotype characterized by the myeloid markers Mac-1 and Gr-1 as well as c-Kit (Pineault et al., 2005; Wang et al., 2005). When transplanted into irradiated recipient mice, cells transduced with Hoxa9 (H) or Hoxa9/Meis1 (H/M) gave rise to leukemia resulting in a median overall survival of 114 days and 41 days, respectively (p<0.001; FIG. 1A). This difference in survival is in accordance with previously published results and reflects the aggressiveness of Hoxa9/Meis1-driven AML observed in patients (Kroon et al., 1998).
The inventors next sought to characterize the functional consequences of Syk overexpression in the context of Hoxa9-driven leukemias. […]
To test whether the enhanced Syk signaling observed in H/M cells could be exploited therapeutically, the effects of Syk inhibitors and of an shRNA-mediated knockdown of Syk in H/M cells, in vitro and in vivo were analyzed.

Data set [6] deals with CD34+ progenitor cells isolated from healthy donors. Nature of the data set: relative viability of CD34+ bone marrow cells from healthy donors. It is filed as cell-based, human.
Experimental: Cells were treated for 24 h and DMSO was used as a control. (J) Relative viability of CD34+ bone marrow cells from healthy donors.
The test system of data set [7] is H cells. Briefly: colony formation and replating assay. It is filed as cell-based, mouse.
From the text: as §4, §2

Consider `COc1cc(Nc2ncc(F)c(Nc3ccc4c(n3)N(COP(=O)(O)O)C(=O)C(C)(C)O4)n2)cc(OC)c1OC` [R788, fostamatinib], for which the “reduction of the percentage of leukemic cells” value with H/M cells [1] (seven days of treatment, oral, peripheral blood YFP-positive cells, on average) is given as “more than 70%”. Also, the median survival in the data set on H/M cells [1] (treatment for 20 days, placebo median 38 days, p<0.001) was 130 days. The “level of H cells (percentage of leukemic cells)” value with H cells [2] (seven days of treatment, oral) is listed as “barely affecting”. For the same molecule, in the data set on H cells [2] (treatment for 20 days), the survival result is given as “No significant effect”.
Regarding `COc1cc(Nc2ncc(F)c(Nc3ccc4c(n3)NC(=O)C(C)(C)O4)n2)cc(OC)c1OC` [R406], the replating efficiency entry with H/S cells and with H/M cells [5] was “decreased replating efficiency” in each case. In addition, the figures for the cell death entry in the data set on H/M cells [3] and with H cells [4] were “significant increase in cell death” and “not significantly affected”, respectively. Also, in the data set on H/M cells [5], the “colony formation potential and replating efficiency” value is “significantly reduced”. Also, in data set [6], the viability result is “did not affect the viability”. Besides, the “colony formation and replating efficiency” value in the data set on H cells [7] is “moderately affecting”.

Source of the values: US20200032350A1, “COMPANION DIAGNOSTICS FOR LEUKEMIA TREATMENT” (JOHANN WOLFGANG GOETHE-UNIVERSITÄT FRANKFURT AM MAIN, priority 2017, published 2020).
